Legend:
[1] = DRUGMATRIX: Nicotinic Acetylcholine radioligand binding (ligand: [125I] Epibatidine); format: cell membranes, Membrane; conditions: imr-32; Not Active = under 50% inhibition at 10 µM
[2] = biological target: T1, Type-2 angiotensin II receptor (Homo sapiens, UniProt P50052); format: cell-based; conditions: cho-k1; further: in other assays of this panel Not Active means under 50% inhibition at 10 µM
T1 sequence (P50052 whole entry): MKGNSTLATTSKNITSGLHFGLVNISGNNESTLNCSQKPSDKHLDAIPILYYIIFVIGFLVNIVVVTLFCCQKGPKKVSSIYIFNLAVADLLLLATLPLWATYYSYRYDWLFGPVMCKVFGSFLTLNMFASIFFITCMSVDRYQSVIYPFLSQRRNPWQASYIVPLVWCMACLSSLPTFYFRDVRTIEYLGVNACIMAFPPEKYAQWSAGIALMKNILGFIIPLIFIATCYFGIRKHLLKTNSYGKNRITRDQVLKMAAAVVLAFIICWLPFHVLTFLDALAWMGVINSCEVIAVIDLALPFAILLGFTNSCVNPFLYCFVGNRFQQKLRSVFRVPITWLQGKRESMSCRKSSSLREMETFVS

[3] = DRUGMATRIX: Phosphodiesterase PDE4 enzyme inhibition (substrate: [3H]cAMP + cAMP); conditions: u-937, Not Active = under 50% inhibition at 10 µM
[4] = biological target: T2, Muscarinic acetylcholine receptor M2 (Homo sapiens, UniProt P08172); format: cell membranes, CHO-K1, Membrane; conditions: cho-k1; further: in other assays of this panel Not Active means under 50% inhibition at 10 µM
T2 sequence (P08172 whole entry): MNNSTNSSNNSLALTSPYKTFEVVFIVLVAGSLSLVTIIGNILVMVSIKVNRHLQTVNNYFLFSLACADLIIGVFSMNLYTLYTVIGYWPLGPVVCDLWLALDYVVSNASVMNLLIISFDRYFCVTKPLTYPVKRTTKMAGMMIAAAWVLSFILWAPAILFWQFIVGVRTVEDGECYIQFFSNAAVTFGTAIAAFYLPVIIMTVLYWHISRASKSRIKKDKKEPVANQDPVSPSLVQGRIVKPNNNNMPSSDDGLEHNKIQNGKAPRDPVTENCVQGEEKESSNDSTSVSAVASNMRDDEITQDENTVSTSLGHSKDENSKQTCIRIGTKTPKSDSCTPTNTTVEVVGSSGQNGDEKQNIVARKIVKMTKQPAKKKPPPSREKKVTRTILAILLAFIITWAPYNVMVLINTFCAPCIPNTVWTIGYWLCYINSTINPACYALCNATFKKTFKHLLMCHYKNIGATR

[5] = biological target: T3, Amine oxidase [flavin-containing] A (Homo sapiens, UniProt P21397); test: DRUGMATRIX: Monoamine Oxidase MAO-A enzyme inhibition (substrate: Kynuramine); design: species or system BTI-TN-5B1-4; conditions: bti-tn-5b1-4; Not Active = under 50% inhibition at 10 µM
T3 sequence (P21397 whole entry): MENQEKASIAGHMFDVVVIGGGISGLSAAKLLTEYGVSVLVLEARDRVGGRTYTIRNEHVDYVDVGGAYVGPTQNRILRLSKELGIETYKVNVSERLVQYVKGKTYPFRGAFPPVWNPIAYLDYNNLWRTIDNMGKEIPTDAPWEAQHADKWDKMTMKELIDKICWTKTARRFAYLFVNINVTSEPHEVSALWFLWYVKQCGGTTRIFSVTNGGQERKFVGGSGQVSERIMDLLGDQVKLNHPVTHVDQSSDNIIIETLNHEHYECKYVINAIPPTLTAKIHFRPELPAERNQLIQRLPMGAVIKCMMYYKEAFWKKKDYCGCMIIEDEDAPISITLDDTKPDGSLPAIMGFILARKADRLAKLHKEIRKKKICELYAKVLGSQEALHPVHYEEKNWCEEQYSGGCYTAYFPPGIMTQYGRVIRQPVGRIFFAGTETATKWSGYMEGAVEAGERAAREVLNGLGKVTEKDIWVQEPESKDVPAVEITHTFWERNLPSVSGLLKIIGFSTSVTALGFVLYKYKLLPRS

[6] = biological target: T4, Interstitial collagenase (Homo sapiens, UniProt P03956); format: tissue-based, Rheumatoid synovial fibroblasts;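 further: MMP-1 enzyme inhibition assay using a peptide substrate; in other assays of this panel Not Active means under 50% inhibition at 10 µM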
T4 sequence (P03956 whole entry): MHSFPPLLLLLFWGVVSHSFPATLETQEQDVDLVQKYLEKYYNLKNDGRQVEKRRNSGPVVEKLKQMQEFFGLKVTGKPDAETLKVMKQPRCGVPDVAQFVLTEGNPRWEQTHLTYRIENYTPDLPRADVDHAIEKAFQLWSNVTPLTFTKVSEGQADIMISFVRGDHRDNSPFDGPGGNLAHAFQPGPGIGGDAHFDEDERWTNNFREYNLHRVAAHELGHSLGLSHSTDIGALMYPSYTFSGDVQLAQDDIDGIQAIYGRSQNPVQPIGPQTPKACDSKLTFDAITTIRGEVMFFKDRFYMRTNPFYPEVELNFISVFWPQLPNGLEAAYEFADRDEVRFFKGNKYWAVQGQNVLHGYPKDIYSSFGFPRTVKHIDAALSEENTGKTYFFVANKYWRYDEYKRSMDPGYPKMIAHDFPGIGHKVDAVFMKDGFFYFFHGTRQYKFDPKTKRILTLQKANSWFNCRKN

[7] = biological target: T5, Polyunsaturated fatty acid lipoxygenase ALOX15 (Oryctolagus cuniculus, UniProt P12530); test: biochemical; format: tissue-based, Reticulocytes;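 further: inhibition of 15-lipoxygenase enzyme activity measured with linoleic acid as the substrate; in other assays of this panel Not Active means under 50% inhibition at 10 µM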
T5 sequence (P12530 whole entry): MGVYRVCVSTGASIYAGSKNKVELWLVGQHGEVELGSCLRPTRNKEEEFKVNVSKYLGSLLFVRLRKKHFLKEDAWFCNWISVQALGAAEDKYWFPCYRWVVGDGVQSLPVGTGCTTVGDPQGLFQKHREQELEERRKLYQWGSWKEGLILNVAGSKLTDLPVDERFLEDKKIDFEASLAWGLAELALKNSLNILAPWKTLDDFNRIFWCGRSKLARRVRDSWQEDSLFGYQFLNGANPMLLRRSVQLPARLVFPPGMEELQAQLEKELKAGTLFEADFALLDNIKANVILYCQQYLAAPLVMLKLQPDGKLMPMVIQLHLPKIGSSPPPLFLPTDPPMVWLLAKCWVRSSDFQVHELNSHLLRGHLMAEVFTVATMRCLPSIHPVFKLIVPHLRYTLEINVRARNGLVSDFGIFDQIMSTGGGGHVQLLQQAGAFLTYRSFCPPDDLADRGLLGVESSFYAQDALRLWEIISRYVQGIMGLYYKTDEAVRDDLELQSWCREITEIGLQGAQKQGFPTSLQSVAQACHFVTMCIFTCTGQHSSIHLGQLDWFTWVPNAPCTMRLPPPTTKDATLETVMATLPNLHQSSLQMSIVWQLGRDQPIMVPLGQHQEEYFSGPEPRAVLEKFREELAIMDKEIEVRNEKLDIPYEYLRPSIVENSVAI

[8] = DRUGMATRIX: Phorbol Ester radioligand binding (ligand: [3H] PDBu); format: cell membranes, Mus musculus, ICR, Brain, Membrane; conditions: Not Active = under 50% inhibition at 10 µM

| Compound | IC50 [1] | Ki [1] | IC50 [2] | IC50 [3] | Ki [3] | IC50 [4] | IC50 [5] | IC50 [6] | IC50 ([7]; read-out: IC50) [µM] | IC50 [8] | Ki [8] | IC50 ([7]; reticulocytes) | IC50 ([3]; read-out: IC50) [µM] |
| --- | --- | --- | --- | --- | --- | --- | --- | --- | --- | --- | --- | --- | --- |
| NNc1ccccc1 [PHENYLHYDRAZINE] | Not Active | Not Active | Not Active | Not Active | Not Active | Not Active | Not Active | Not Active | 1.67 | Not Active | Not Active | – | – |
| NC(CO)(CO)CO [TROMETHAMINE] | Not Active | Not Active | Not Active | Not Active | Not Active | Not Active | Not Active | Not Active | – | Not Active | Not Active | Not Active | – |
| COC(=O)C1=C(C)NC(C)=C(C(=O)OC)C1c1ccccc1[N+](=O)[O-] [NIFEDIPINE] | Not Active | Not Active | Not Active | – | – | Not Active | Not Active | Not Active | 15.1 | Not Active | Not Active | – | 44.2 |
| CC[C@H]1OC(=O)[C@H](C)[C@@H](O[C@H]2C[C@@](C)(OC)[C@@H](O)[C@H](C)O2)[C@H](C)[C@@H](O[C@@H]2O[C@H](C)C[C@H](N(C)C)[C@H]2O)[C@](C)(O)C[C@@H](C)/C(=N\OCOCCOC)[C@H](C)[C@@H](O)[C@]1(C)O [ROXITHROMYCIN] | Not Active | Not Active | Not Active | Not Active | Not Active | Not Active | Not Active | Not Active | – | Not Active | Not Active | Not Active | – |
| CC(C)[C@H](N)C(=O)OCCOCn1cnc2c(=O)nc(N)[nH]c21 [VALACYCLOVIR] | Not Active | Not Active | Not Active | Not Active | Not Active | Not Active | Not Active | Not Active | – | Not Active | Not Active | Not Active | – |
| NC(=O)c1ncn([C@@H]2O[C@H](CO)[C@@H](O)[C@H]2O)n1 [RIBAVIRIN] | Not Active | Not Active | Not Active | Not Active | Not Active | Not Active | Not Active | Not Active | – | Not Active | Not Active | Not Active | – |
| COC(=O)c1ccc(O)cc1 [METHYLPARABEN] | Not Active | Not Active | Not Active | Not Active | Not Active | Not Active | Not Active | Not Active | – | Not Active | Not Active | Not Active | – |
| COc1ccc(C(CN(C)C)C2(O)CCCCC2)cc1 (stereo unspecified) [VENLAFAXINE] | Not Active | Not Active | Not Active | Not Active | Not Active | Not Active | Not Active | Not Active | – | Not Active | Not Active | Not Active | – |
| COS(C)(=O)=O [METHANESULFONIC ACID METHYL ESTER] | Not Active | Not Active | Not Active | Not Active | Not Active | Not Active | Not Active | Not Active | – | Not Active | Not Active | Not Active | – |
| CC1=C(/C=C/C(C)=C/C=C/C(C)=C\C(=O)O)C(C)(C)CCC1 [ISOTRETINOIN] | Not Active | Not Active | Not Active | Not Active | Not Active | Not Active | Not Active | Not Active | – | Not Active | Not Active | Not Active | – |
| CO[C@@H]1[C@@H](O[C@@H]2O[C@H](C)[C@@H](O[C@H]3C[C@@](C)(O)[C@@H](OC(=O)CC(C)C)[C@H](C)O3)[C@H](N(C)C)[C@H]2O)[C@@H](CC=O)C[C@@H](C)[C@@H](O)/C=C/C=C/C[C@@H](C)OC(=O)C[C@H]1O [KITASAMYCIN] | Not Active | Not Active | Not Active | Not Active | Not Active | Not Active | Not Active | Not Active | – | Not Active | Not Active | Not Active | – |
| C[C@]12Cc3c[nH]nc3C[C@@H]1CC[C@@H]1[C@@H]2CC[C@@]2(C)[C@H]1CC[C@]2(C)O [STANOZOLOL] | Not Active | Not Active | Not Active | Not Active | Not Active | Not Active | Not Active | Not Active | – | Not Active | Not Active | Not Active | – |
